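Five concentrations, 48 hours, 96-well plates. Here, GI50 denotes the concentration required for 50% inhibition of growth.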 Active and inactive are the calls of the source. Rule as the data show it: active = GI50 up to about 1.1 µM and inactive = higher.
Columns and labels:
Assay in all cases: inhibition of tumour cell growth, NCI panel, 48 h
DU-145 = system: DU-145
SK-MEL-28 = system: SK-MEL-28
U-251 = system: U-251
SN12C = system: SN12C
A549 = system: A549
HCT-15 = system: HCT-15
MDA-MB-435 = system: MDA-MB-435
CCRF-CEM = system: CCRF-CEM
Malme-3M = system: Malme-3M
NCI-H522 = system: NCI-H522
NCI-H23 = system: NCI-H23
IGROV-1 = system: IGROV-1
UACC-257 = system: UACC-257
UACC-62 = system: UACC-62
MOLT-4 = system: MOLT-4
HT-29 = system: HT-29
SW-620 = system: SW-620

For `O=C(O)c1ccc(C(O)(c2ccccc2)c2ccccc2)cc1`, the GI50 (DU-145) was > 100 µM (inactive), the GI50 (SK-MEL-28) was > 100 µM (inactive) and the GI50 (U-251) was > 100 µM (inactive). The GI50 (SN12C) was > 100 µM (inactive), the GI50 (A549) was > 100 µM (inactive) and the GI50 (HCT-15) was > 100 µM. The GI50 (MDA-MB-435) was > 100 µM (inactive), the GI50 (CCRF-CEM) was > 100 µM (inactive) and the GI50 (Malme-3M) was > 100 µM (inactive). The GI50 (NCI-H522) was > 100 µM (inactive), the GI50 (NCI-H23) was > 100 µM (inactive) and the GI50 (IGROV-1) was > 100 µM (inactive). The GI50 (UACC-257) was > 100 µM (inactive), the GI50 (UACC-62) was > 100 µM (inactive) and the GI50 (MOLT-4) was > 100 µM (inactive).

For `CC1(CF)SCc2nc3ccccc3n21` (stereo not given), the GI50 (DU-145) was > 100 µM (inactive), the GI50 (SK-MEL-28) was > 100 µM (inactive) and the GI50 (U-251) was > 100 µM (inactive). For the same compound, the GI50 (SN12C) was > 100 µM (inactive), the GI50 (A549) was > 100 µM (inactive) and the GI50 (HCT-15) was > 100 µM. The GI50 (MDA-MB-435) was > 100 µM (inactive), the GI50 (Malme-3M) was > 100 µM (inactive) and the GI50 (NCI-H522) was > 100 µM (inactive). The GI50 (NCI-H23) was > 100 µM (inactive), the GI50 (HT-29) was > 100 µM (inactive) and the GI50 (IGROV-1) was > 100 µM (inactive). For the same compound, the GI50 (UACC-257) was > 100 µM (inactive), the GI50 (UACC-62) was > 100 µM (inactive) and the GI50 (SW-620) was > 100 µM (inactive).

For `CCCCCCCCCCCCNC(C)=O`, the GI50 (DU-145) was 30.9 µM (inactive), the GI50 (SK-MEL-28) was 17.6 µM (inactive) and the GI50 (U-251) was 15.4 µM (inactive). For the same compound, the GI50 (SN12C) was 16.6 µM (inactive), the GI50 (A549) was 27 µM (inactive) and the GI50 (HCT-15) was 16.9 µM. The GI50 (MDA-MB-435) was 18.2 µM (inactive), the GI50 (CCRF-CEM) was 14.4 µM (inactive) and the GI50 (Malme-3M) was 17.7 µM (inactive). The GI50 (NCI-H522) was 14 µM (inactive), the GI50 (NCI-H23) was 15.7 µM (inactive) and the GI50 (HT-29) was 19.5 µM (inactive). The GI50 (UACC-257) was 23.2 µM (inactive), the GI50 (UACC-62) was 15.6 µM (inactive) and the GI50 (SW-620) was 16.8 µM (inactive).

`CN(C)c1nc2oc(-c3ccccc3)c(-c3ccccc3)c2c2nncn12` was tested, and the GI50 (DU-145) was > 100 µM (inactive), the GI50 (SK-MEL-28) was > 100 µM (inactive) and the GI50 (U-251) was > 100 µM (inactive). For the same compound, the GI50 (SN12C) was > 100 µM (inactive), the GI50 (A549) was > 100 µM (inactive) and the GI50 (HCT-15) was > 100 µM. For the same compound, the GI50 (MDA-MB-435) was > 100 µM (inactive), the GI50 (CCRF-CEM) was > 100 µM (inactive) and the GI50 (NCI-H522) was > 100 µM (inactive). For the same compound, the GI50 (NCI-H23) was > 100 µM (inactive), the GI50 (HT-29) was > 100 µM (inactive) and the GI50 (IGROV-1) was > 100 µM (inactive). For the same compound, the GI50 (UACC-257) was > 100 µM (inactive), the GI50 (UACC-62) was > 100 µM (inactive) and the GI50 (SW-620) was > 100 µM (inactive). The GI50 (MOLT-4) was > 10 µM (inactive).

`Cc1nc2ccc(S(=O)(=O)Nc3ccccn3)cc2c(=O)n1NS(=O)(=O)c1ccccn1` was tested, and the GI50 (DU-145) was > 100 µM (inactive), the GI50 (SK-MEL-28) was > 100 µM (inactive) and the GI50 (U-251) was > 100 µM (inactive). The GI50 (SN12C) was > 100 µM (inactive), the GI50 (HCT-15) was > 100 µM and the GI50 (MDA-MB-435) was > 100 µM (inactive). For the same compound, the GI50 (CCRF-CEM) was > 100 µM (inactive), the GI50 (Malme-3M) was > 100 µM (inactive) and the GI50 (NCI-H522) was > 100 µM (inactive). The GI50 (NCI-H23) was > 100 µM (inactive), the GI50 (HT-29) was > 100 µM (inactive) and the GI50 (IGROV-1) was > 100 µM (inactive). The GI50 (UACC-257) was > 100 µM (inactive), the GI50 (UACC-62) was > 100 µM (inactive) and the GI50 (SW-620) was > 100 µM (inactive). For the same compound, the GI50 (MOLT-4) was > 100 µM (inactive).

For `Cc1cc(C)n(C(=O)CSc2nc3ccc(I)cc3c(=O)n2Cc2ccccc2)n1`, the GI50 (DU-145) was 42 µM (inactive), the GI50 (SK-MEL-28) was > 100 µM (inactive) and the GI50 (U-251) was 35.8 µM (inactive). The GI50 (SN12C) was 51.8 µM (inactive), the GI50 (A549) was 41 µM (inactive) and the GI50 (HCT-15) was 30.4 µM. For the same compound, the GI50 (MDA-MB-435) was 73.6 µM (inactive), the GI50 (CCRF-CEM) was 67.1 µM (inactive) and the GI50 (NCI-H522) was 20.1 µM (inactive). The GI50 (NCI-H23) was 65.8 µM (inactive), the GI50 (HT-29) was > 100 µM (inactive) and the GI50 (IGROV-1) was 20 µM (inactive). For the same compound, the GI50 (UACC-257) was 33.9 µM (inactive), the GI50 (UACC-62) was 80.5 µM (inactive) and the GI50 (SW-620) was 87.1 µM (inactive). The GI50 (MOLT-4) was > 100 µM (inactive).

In the case of `OC[C@]1(n2nc3ccccc3n2)OC[C@@H]1c1ccccc1`, the GI50 (DU-145) was 27.5 µM (inactive), the GI50 (SK-MEL-28) was 28.2 µM (inactive) and the GI50 (U-251) was 48.4 µM (inactive). The GI50 (SN12C) was 43.1 µM (inactive), the GI50 (A549) was 64.3 µM (inactive) and the GI50 (HCT-15) was 42.1 µM. The GI50 (MDA-MB-435) was 32.2 µM (inactive), the GI50 (CCRF-CEM) was 36.1 µM (inactive) and the GI50 (Malme-3M) was 19.4 µM (inactive). For the same compound, the GI50 (NCI-H522) was 20.1 µM (inactive), the GI50 (NCI-H23) was 48.2 µM (inactive) and the GI50 (HT-29) was 29.6 µM (inactive). For the same compound, the GI50 (IGROV-1) was 37.2 µM (inactive), the GI50 (UACC-257) was 93.8 µM (inactive) and the GI50 (UACC-62) was 43.3 µM (inactive). For the same compound, the GI50 (MOLT-4) was 33.7 µM (inactive).

In the case of `CCNC(=O)Nc1ccccn1`, the GI50 (DU-145) was > 100 µM (inactive), the GI50 (SK-MEL-28) was > 100 µM (inactive) and the GI50 (U-251) was > 100 µM (inactive). The GI50 (SN12C) was > 100 µM (inactive), the GI50 (A549) was > 100 µM (inactive) and the GI50 (MDA-MB-435) was > 100 µM (inactive). The GI50 (CCRF-CEM) was > 100 µM (inactive), the GI50 (Malme-3M) was > 100 µM (inactive) and the GI50 (NCI-H522) was > 100 µM (inactive). For the same compound, the GI50 (NCI-H23) was > 100 µM (inactive), the GI50 (HT-29) was > 100 µM (inactive) and the GI50 (IGROV-1) was > 100 µM (inactive). For the same compound, the GI50 (UACC-257) was > 100 µM (inactive), the GI50 (UACC-62) was > 100 µM (inactive) and the GI50 (SW-620) was > 100 µM (inactive). The GI50 (MOLT-4) was > 100 µM (inactive).

For `O=S(=O)(O)c1ccc(/N=N/c2ccc(/N=N/c3c(O)ccc4cc(S(=O)(=O)O)ccc34)cc2)cc1`, the GI50 (SK-MEL-28) was > 100 µM (inactive), the GI50 (U-251) was > 100 µM (inactive) and the GI50 (A549) was > 100 µM (inactive). The GI50 (HCT-15) was > 100 µM, the GI50 (MDA-MB-435) was > 100 µM (inactive) and the GI50 (CCRF-CEM) was > 100 µM (inactive). The GI50 (Malme-3M) was > 100 µM (inactive), the GI50 (NCI-H522) was > 100 µM (inactive) and the GI50 (NCI-H23) was > 100 µM (inactive). The GI50 (HT-29) was > 100 µM (inactive), the GI50 (IGROV-1) was > 100 µM (inactive) and the GI50 (UACC-257) was > 100 µM (inactive). The GI50 (UACC-62) was > 100 µM (inactive), the GI50 (SW-620) was > 100 µM (inactive) and the GI50 (MOLT-4) was > 100 µM (inactive).
